Experiment: refractive index (Na D-line) (dimensionless); xn = mol fraction of the nth substance listed
Settings: 101 kPa, Liquid, Standard Abbe refractometry

CCCCn1cc[n+](C)c1.[O-][Cl+3]([O-])([O-])[O-] [1-butyl-3-methylimidazolium perchlorate] + CCO
refractive index
Settings	x2 = 0.1	x2 = 0.165	x2 = 0.291	x2 = 0.401	x2 = 0.479
283.15 K	1.475	1.4725	1.468	1.4625	1.459
288.15 K	1.4738	1.4715	1.4667	1.4612	1.4575
293.15 K	1.4725	1.47	1.4655	1.4595	1.4563
298.15 K	1.471	1.4687	1.464	1.458	1.455
303.15 K	1.4697	1.4673	1.4627	1.4568	1.4535
308.15 K	1.4685	1.466	1.4615	1.4555	–
313.15 K	1.467	1.4648	1.46	1.454	–
318.15 K	1.4655	1.4637	1.4587	–	–
323.15 K	1.4645	1.462	1.457	–	–
328.15 K	1.463	1.4608	1.456	–	–
333.15 K	1.4615	1.4595	1.4545	–	–
338.15 K	1.4603	1.458	1.4532	–	–
343.15 K	1.459	1.4565	1.4518	–	–

CCCCCCCC[n+]1ccn(C)c1.F[B-](F)(F)F [1-methyl-3-octylimidazolium tetrafluoroborate] + CCO
refractive index
Settings	x2 = 0.081	x2 = 0.161	x2 = 0.315	x2 = 0.511	x2 = 0.612	x2 = 0.753
283.15 K	1.4335	1.4315	1.43	1.4265	1.4225	1.4132
288.15 K	1.4323	1.4305	1.4288	1.425	1.4212	1.4125
293.15 K	1.431	1.4292	1.4273	1.4237	1.42	1.411
298.15 K	1.4295	1.428	1.426	1.423	1.4185	1.4098
303.15 K	1.4284	1.427	1.4245	1.4208	1.4172	1.4085
308.15 K	1.4268	1.4255	1.423	1.4195	1.416	1.4072
313.15 K	1.4255	1.424	1.4219	1.418	1.4143	1.407
318.15 K	1.424	1.4225	1.4205	1.4168	1.413	1.4065
323.15 K	1.4225	1.421	1.419	1.415	1.4115	1.4055
328.15 K	1.4213	1.42	1.4178	1.4137	1.41	1.4045
333.15 K	1.4205	1.4188	1.416	1.4125	1.4085	1.404
338.15 K	1.419	1.4173	1.4145	1.4118	1.4078	1.4033
343.15 K	1.4175	1.416	1.4132	1.411	1.4065	1.402
